Measurements from publication PMC11042424, “Development of a First-in-Class RIPK1 Degrader to Enhance Antitumor Immunity” (Research Square, 2024).

Key:
[1] = target: T1, RIPK1 and VHL (Homo sapiens, UniProt P40337+Q13546); experiment: NanoBRET live-cell ternary complex assay; assay type: cell-based; details: HEK293 cells co-transfected with nLuc-RIPK1 and VHL-Halo
T1 construct: Addgene backbone 87075 (RIPK1 vector, made in house) N273A; host or cells: HEK293T
Method: Figure 2 LD4172, a RIPK1 PROTAC, induces potent and highly specific degradation of RIPK1 in a panel of cell lines. A, Chemical structures of RIPK1 PROTAC, LD4172, and its negative control, LD4172-NC. […] B, Quantification of RIPK1 levels in both Jurkat and B16F10 cells treated with LD4172 at indicated concentrations for 24 h, followed by Western blotting. C, DC50 and Dmax of LD4172 in various human and mouse cell lines. DC50, the drug concentration causing 50% protein degradation; Dmax, the maximum level of protein degradation. D, RIPK1 degradation kinetics induced by LD4172 treatment (1 μM) and resynthesis kinetics upon washout of LD4172 in both Jurkat and B16F10 cells. […] G, Time-resolved fluorescence resonance energy transfer (TR-FRET) based biochemical binding assay for RIPK1. […] In total, ~10,000 proteins were quantified in the proteomics experiment. […]
Human RIPK1 cDNA insert was cloned into pLenti6.2-ccdB-nLuc plasmid (87075, Addgene, a kind gift from Taipale Lab) using gateway cloning kit (11791020, Thermo) and standard protocol to obtain pLenti6.2-RIPK1-nLuc fusion vector. […] Immediately before reading the plate, prepare 4x concentrated NanoGlo nLuc substrate (N157, Promega) was prepared by diluting the stock into Opti-MEM 1,000-fold, and the NanoGlo substrate was then added into each well to bring the final concentration to 1x. […]

[2] = target: T2, nLuc-RIPK1 fusion protein (Homo sapiens, UniProt Q13546); experiment: NanoBRET based in-cell RIPK1 target engagement
T2 construct: expressed in transfected cells
T2 sequence (Q13546 1-671): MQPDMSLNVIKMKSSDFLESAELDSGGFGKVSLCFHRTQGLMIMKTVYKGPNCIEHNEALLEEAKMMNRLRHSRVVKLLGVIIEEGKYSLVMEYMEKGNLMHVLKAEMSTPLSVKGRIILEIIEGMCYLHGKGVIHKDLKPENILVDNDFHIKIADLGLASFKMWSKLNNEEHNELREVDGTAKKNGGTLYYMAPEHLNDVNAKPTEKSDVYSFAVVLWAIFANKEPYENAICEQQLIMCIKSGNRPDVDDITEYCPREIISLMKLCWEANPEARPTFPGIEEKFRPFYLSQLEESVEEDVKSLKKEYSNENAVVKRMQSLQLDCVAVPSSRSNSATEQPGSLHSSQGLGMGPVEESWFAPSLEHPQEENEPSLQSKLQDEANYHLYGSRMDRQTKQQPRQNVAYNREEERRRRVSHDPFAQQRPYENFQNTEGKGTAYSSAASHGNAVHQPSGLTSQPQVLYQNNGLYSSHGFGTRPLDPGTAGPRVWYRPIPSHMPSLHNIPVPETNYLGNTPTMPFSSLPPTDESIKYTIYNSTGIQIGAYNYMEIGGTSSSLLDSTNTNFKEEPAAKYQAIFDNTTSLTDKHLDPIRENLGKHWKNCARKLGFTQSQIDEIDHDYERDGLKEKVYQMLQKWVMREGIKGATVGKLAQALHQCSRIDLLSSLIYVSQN
Method: Figure 2 LD4172, a RIPK1 PROTAC, induces potent and highly specific degradation of RIPK1 in a panel of cell lines. A, Chemical structures of RIPK1 PROTAC, LD4172, and its negative control, LD4172-NC. […] B, Quantification of RIPK1 levels in both Jurkat and B16F10 cells treated with LD4172 at indicated concentrations for 24 h, followed by Western blotting. C, DC50 and Dmax of LD4172 in various human and mouse cell lines. DC50, the drug concentration causing 50% protein degradation; Dmax, the maximum level of protein degradation. D, RIPK1 degradation kinetics induced by LD4172 treatment (1 μM) and resynthesis kinetics upon washout of LD4172 in both Jurkat and B16F10 cells. E, Quantification of D. The degradation half-life of RIPK1 induced by LD4172 (1 μM) is <2 h in Jurkat and B16F10 cells. […] F, NanoBRET based in-cell RIPK1 target engagement. HEK293 cells were transfected with a plasmid expressing nLuc-RIPK1 fusion protein for 24 h, followed by incubating with a RIPK1 NanoBRET tracer (500 nM) and different concentrations of LD4172 and LD4172-NC (n=3). G, Time-resolved fluorescence resonance energy transfer (TR-FRET) based biochemical binding assay for RIPK1. GST-tagged human RIPK1 (1 nM), Tb-labeled anti-GST antibody (0.3 nM), a RIPK1 TR-FRET tracer (350 nM) and different concentrations of LD4172 (n=3) were incubated for 2 hours, followed by TR-FRET measurements with an excitation wavelength at 340 nm and emission wavelengths at 495 and 520 nm. H, NanoBRET based in-cell assay for ternary complex formation. HEK293T cells were co-transfected with nLuc-RIPK1 and VHL-HaloTag plasmids for 24 h, followed by treatment with indicated concentrations of LD4172 or LD4172-NC (n=3). I, LD4172 induced RIPK1 degradation depends on ternary complex formation, neddylation and proteasome activity. Representative immunoblots of RIPK1 in both Jurkat and B16F10 cells. Cells were treated with RIPK1 inhibitor (T2I), VHL ligand, a neddylation inhibitor (MLN4924) or a proteasome inhibitor (Carfilzomib) at indicated concentrations for 4 hours, followed by LD4172 treatment for 4 hours. J, Proteome profiling of LD4172 induced protein degradation. MDA-MB- 231 cells were treated with LD4172 (200 nM) or LD4172-NC (200 nM) for 6 h (n=3). In total, ~10,000 proteins were quantified in the proteomics experiment. […] Blue dots represent kinases that are inhibited by the warhead of LD4172 but not degraded by LD4172.
To elucidate the formation of a binary complex during RIPK1 degradation, we developed a competitive NanoBRET (Nano-Bioluminescence Resonance Energy transfer)-based target engagement (TE) assay to quantify the binding between RIPK1 and LD4172 in cells[12],[13]. First, we developed a RIPK1 tracer by conjugating the LD4172 warhead T2I with a BODIPY-590 fluorescent dye, dubbed T2–590 (refer to Supporting Information for details). The dissociation equilibrium constant (Kd) between the tracer and RIPK1 was determined to be 0.5 μM by titrating the tracer in HEK293T cells expressing a nLuc-RIPK1 fusion protein. […] This is usually expected, considering that the large molecular weight of LD4172 may lead to poor cellular permeability.

[3] = target: T3, RIPK1 (Mus musculus, UniProt Q60855); experiment: RIPK1 degradation in B16F10 mouse melanoma cells, Western blotting; assay type: cell-based; parameters: Quantification of RIPK1 levels in both Jurkat and B16F10 cells; endogenous in cells; host or cells: B16F10; details: pre-treatment 4 hours, then LD4172 4 hours
T3 sequence (Q60855 1-656): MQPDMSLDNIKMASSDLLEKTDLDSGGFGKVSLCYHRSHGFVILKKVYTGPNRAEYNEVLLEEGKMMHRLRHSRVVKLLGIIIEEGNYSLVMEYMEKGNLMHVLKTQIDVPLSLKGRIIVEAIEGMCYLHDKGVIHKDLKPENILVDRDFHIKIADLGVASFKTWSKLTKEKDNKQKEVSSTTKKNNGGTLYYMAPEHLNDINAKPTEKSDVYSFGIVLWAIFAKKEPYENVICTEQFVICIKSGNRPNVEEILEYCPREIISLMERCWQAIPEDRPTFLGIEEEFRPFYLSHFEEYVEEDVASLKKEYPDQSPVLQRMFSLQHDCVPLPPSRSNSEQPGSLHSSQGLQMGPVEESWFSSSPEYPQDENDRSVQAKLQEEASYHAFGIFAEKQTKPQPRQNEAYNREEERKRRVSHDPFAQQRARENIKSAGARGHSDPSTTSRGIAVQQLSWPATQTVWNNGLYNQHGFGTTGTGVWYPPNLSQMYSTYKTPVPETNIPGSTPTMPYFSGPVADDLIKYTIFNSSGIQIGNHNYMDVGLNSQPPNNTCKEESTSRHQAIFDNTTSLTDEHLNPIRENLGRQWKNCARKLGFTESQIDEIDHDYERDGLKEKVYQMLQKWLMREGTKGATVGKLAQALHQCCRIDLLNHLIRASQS
Excerpt: (§1) Figure 1 Design and screen of RIPK1 PROTACs. A, Chemical structure and docking modeling of type II inhibitor 1 with the kinase domain of RIPK1 (PDB: 4NEU). The group exposed to solvent region is highlighted with yellow circle. B, Chemical structure and co-crystal structure of type III inhibitor 2 in complex with RIPK1 (PDB: 6R5F). The solventexposed group of inhibitor 2 is highlighted with yellow circle. C, A small library design of RIPK1 PROTACs. Either Type II inhibitor 1 or type III inhibitor 2 is conjugated with various E3 ligase ligands or adamantane tag to generate a small library of RIPK1 PROTACs. D, Quantification of RIPK1 levels in Jurkat cells treated with indicated compounds for 24 h at 0, 0.1, 1 and 10 μM, followed by Western blotting. E, Quantification of D. F, Quantification of RIPK1 levels in both Jurkat and B16F10 cells treated with type II inhibitor-based PROTACs with different linker lengths for 24 h, followed by Western blotting. G, Quantification of F.
(§2) Figure 2 LD4172, a RIPK1 PROTAC, induces potent and highly specific degradation of RIPK1 in a panel of cell lines. […] B, Quantification of RIPK1 levels in both Jurkat and B16F10 cells treated with LD4172 at indicated concentrations for 24 h, followed by Western blotting. […] G, Time-resolved fluorescence resonance energy transfer (TR-FRET) based biochemical binding assay for RIPK1. […]

[4] = target: T4, RIPK1 (Homo sapiens, UniProt Q13546); experiment: RIPK1 degradation in Jurkat cells, Western blotting; assay type: cell-based; details: pre-treatment 4 hours, then LD4172 4 hours
T4 construct: Quantification of RIPK1 levels in Jurkat cells treated with indicated compounds for 24 h; endogenous in cells; host or cells: Jurkat
T4 sequence (Q13546 1-671): T2 sequence (Q13546 1-671)
Excerpt: as §1, §2

Compound | ternary complex formation, NanoBRET between RIPK1 and VHL [1] | target engagement (TE) compared with LD4172 [2] | IC50 ([2]; HEK293 cells, tracer 500 nM, n=3, read-out: IC50 (nM), Fig. 2F) [nM] | effect on RIPK1 degradation by LD4172 [3] | effect on RIPK1 degradation by LD4172 [4]
Cc1ncsc1-c1ccc([C@H](C)NC(=O)[C@H]2C[C@H](O)CN2C(=O)[C@@H](NC(=O)CCCCCCCCCCC(=O)NCCCn2cc(-c3ccc4c(c3)CCN4C(=O)Cc3cccc(OC(F)(F)F)c3)c3c(N)ncnc32)C(C)(C)C)cc1 [LD4172-NC] | not | TE similar to that of LD4172 | 1850 | – | –
NS(=O)(=O)OC[C@@H]1C[C@@H](n2ccc3c(N[C@H]4CCc5ccccc54)ncnc32)C[C@@H]1O [MLN4924] | – | – | – | reversed | reversed
CC(C)C[C@H](NC(=O)[C@H](CCc1ccccc1)NC(=O)CN1CCOCC1)C(=O)N[C@@H](Cc1ccccc1)C(=O)N[C@@H](CC(C)C)C(=O)[C@@]1(C)CO1 [carfilzomib] | – | – | – | reversed | reversed
